Test results reported in US20200339544A1 (JOINT STOCK COMPANY "BIOCAD", priority 2017, published 2020).
pIC50: −log10 of the molar value. Like-named read-outs stand apart in the source and are kept apart here. Marks after values point to notes of the source that are not given here.

Key:
[1] = tested on: A549 (lung adenocarcinoma, WT); experiment: Antiproliferative activity on A549 cells (Alamar Blue); format: cell-based; conditions: Homo sapiens, antiproliferative test
Outline: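 Cells seeded at 5*10^3/well in RPMI-1640 with 2% FBS, attached 16-18 h at 37° C, then exposed to compounds (≤1% DMSO) for 72 h. Alamar Blue added for 3-5 h; fluorescence read at 540/590 nm. IC50 from four-parameter logistic fit.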

[2] = tested on: H1975 (lung adenocarcinoma, DM, L828R/T790M); experiment: Antiproliferative activity on H1975 cells (Alamar Blue); format: cell-based; conditions: for pIC50: Homo sapiens, NCI-H1975, H1975 cells; for SI IC50(A549)/IC50(DM): selectivity index, A549 vs H1975 cells
Outline: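 H1975 cells (15*10^3/well) attached 16-18 h in RPMI-1640 with 2% FBS, then exposed to compounds (≤1% DMSO final) for 72 h at 37 °C. Viability by Alamar Blue fluorescence (Ex 540/Em 590 nm) after 3-5 h; IC50 from four-parameter logistic fit.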

[3] = Chemical stability in simulated intestinal fluid (SIF); format: physicochemical; conditions: SIF without enzymes, pH 6.5; 10 μm; 2 hours at 37° C.; substance amount remaining
Protocol: (§1) 1) Determination of chemical stability in simulated intestinal fluid, simulated gastric fluid and human blood plasma.
(§2) SGF concentrate without enzymes, pH=1,4 (Sigma Ireland, cat #01651) was used as simulated gastric fluid. Initial candidate solution (10 mM in DMSO) was diluted with a SGF working solution to a concentration of 10 μm (test solution). The test solution was incubated in a dry block thermostat for 2 hours at 37° C. SIF concentrate without enzymes, pH=6.5 (Sigma Ireland, cat #55331) was used as simulated intestinal fluid. Initial candidate solution (10 mM in DMSO) was diluted with a SIF working solution to a concentration of 10 μm (test solution). The test solution was incubated in a dry block thermostat for 2 hours at 37° C. HPLC with Agilent 1200 liquid chromatography system (Agilent, USA) was employed to determine peak areas of the compounds in test samples, said peak areas corresponding to the initial test time (prior to incubation) and the final test time (after incubation in a dry block thermostat for 2 hours at 37° C.). We used gradient elution (1 mL/min flow rate). Substance amount in % in a sample after thermostatting was determined.
(§3) The stability of the compounds was estimated.

[4] = Chemical stability in human blood plasma; format: in vitro ADME; conditions: pooled human blood plasma; 10 μm; 4 hours at 37° C.; substance amount remaining
Outline: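 Pooled plasma from ten healthy donors was spiked to 10 μM from a 10 mM DMSO stock and held 4 h at 37 °C. After acetonitrile protein precipitation, HPLC peak areas before and after incubation gave the percentage of compound remaining.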

[5] = Chemical stability in simulated gastric fluid (SGF); format: physicochemical; conditions: SGF without enzymes, pH 1,4; 10 μm; 2 hours at 37° C.; substance amount remaining
Protocol: as §1, §2, §3

[6] = molecular target: T1, DM EGFR (DoubleMutantEGFR, L828R/T790M) (Homo sapiens, UniProt P00533, L858R/T790M); experiment: Inhibition of DM EGFR kinase activity (ADP-Glo); format: biochemical; conditions: for pIC50: inhibition of kinase activity, EGFR DM (L828R/T790M); for SI, IC50(WT)/IC50(DM): selectivity index, kinase EGFR WT vs EGFR DM
T1 construct: purchased SignalChem
Outline: (§4)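 Recombinant WT or double-mutant EGFR was incubated with a solution of 0.5 mg/mL peptide substrate and 50 μM ATP for 180 minutes at 37° C. Kinase activity was detected by ADP-Glo luminescence. IC50 values came from a four-parameter logistic fit.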

[7] = tested on: HCC827 (lung adenocarcinoma, SM, exon19delE746-A750); experiment: Antiproliferative activity on HCC827 cells (Alamar Blue); format: cell-based; conditions: Homo sapiens, antiproliferative test
Protocol: Antiproliferative activity of EGFR inhibitors (Tables 15 and 16) was measured in cell-based bioassay on continuous epithelial cell cultures: A549 (lung adenocarcinoma, ATCC® CRM-CCL-185™—WT), HCC827 (lung adenocarcinoma, ATCC® CRL-2868™—SM (SingleMutantEGFR, exon19delE746-A750)) and H1975 (lung adenocarcinoma, ATCC® CRL-5908™—DM (DoubleMutantEGFR, L828R/T790M)) using cell viability reagent Alamar Blue (ThermoFisher, # DAL1100). Cells were cultured in 10% FBS-supplemented (Gibco, #16140071) RPMI-1640 (PanEco, S330p) for at least 1 passage after thawing, washed with PBS and passaged in 96-well culture plates (3599, Corning) with RPMI-1640 growth medium supplemented with 2% FBS in an amount of 5*10^3 cells/well for A549, 10*10^3 cells/well for HCC827 and 15*10^3 cells/well for H1975 in 100 μL, and incubated at 37° C. in an incubator (Thermo Forma, USA) under 5% of CO2 for 16-18 h for cell attachment.
The test compounds were dissolved in DMSO in the selected range of concentrations and transferred to RPMI-1640 medium (PanEco, S330p) supplemented with 2% FBS. After adding 50 μl of the prepared dilutions to the cells, the incubation mixture contained the final concentrations of the test substances and no more than 1% DMSO. The plates were Incubated at 37° C. for 72 h. After incubation, 15 μl of Alamar Blue vital dye (ThermoFisher, # DAL1100) was added to each well. The plates were shaken on an orbital shaker (Biosan, Latvia) and further incubated for 3-5 h in a CO2 incubator (Thermo Forma, USA). Number of living cells was estimated using a plate spectrophotometer Infinite M200Pro, (Tecan, Switzerland) measuring fluorescent signal at the excitation wavelength (λEx) of 540 nm and emission wavelength (λEm) of 590 nm.
IC50 was calculated using Magellan 7.2 software (Tecan, Switzerland) approximating experimental points by four-parameter logistic model with the optimization by Levenberg-Marquardt.

HepG2 cells = experiment: General cytotoxicity on HepG2 cells; format: cell-based; conditions: therapeutic index, CC50 HepG2 / IC50 H1975
Outline: (§5)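 HepG2 cells seeded at 2*10^4 cells per well and compounds added in DMEM with 2% FBS for 72 h at 37 °C. Viability read with Alamar Blue and CC50 derived as for IC50. Therapeutic index taken as HepG2 CC50 over H1975 IC50.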

[8] = General cytotoxicity on HepG2 cells; format: cell-based; conditions: human; general cytotoxicity, HepG2 cells, 72 hours, average of several tests
Outline: as §5

WT EGFR (Wild-Type EGFR) = molecular target: T2, WT EGFR (Wild-Type EGFR) (Homo sapiens, UniProt P00533); experiment: Inhibition of WT EGFR kinase activity (ADP-Glo); format: biochemical
T2 construct: purchased SignalChem
Outline: as §4

[9] = average values obtained in several tests, Table 16, read-out: H1975 (DM) IC50
[10] = antiproliferative test, Table 15, read-out: IC50 H1975 (DM)

| SMILES | pIC50 [1] | pIC50 [2, 9] | pIC50 [2, 10] | SI IC50(A549)/IC50(DM) [2] | Stability in SIF, % [3] [%] | Stability in blood plasma, % [4] [%] | Stability in SGF, % [5] [%] | pIC50 [6] | SI, IC50(WT)/IC50(DM) [6] | pIC50 [7] | TI, CC50/IC50 (HepG2 cells) | CC50 at 72 h [8] [nM] | pIC50 (WT EGFR (Wild-Type EGFR)) |
| --- | --- | --- | --- | --- | --- | --- | --- | --- | --- | --- | --- | --- | --- |
| C=CC(=O)Nc1cc(Nc2nccc(C(=O)c3cccc(F)c3)n2)c(OC)cc1N(C)CCN(C)C [EGFR_3365_11, N-(2-((2-(dimethylamino)ethyl)(methyl)amino)-5-((4-(3-fluorobenzoyl)pyrimidin-2-yl)amino)-4-methoxyphenyl) acrylamide] | 4.91 | 6.45 | 6.45 | 35.37 | 100.0 | 85.4 | 100.0 | 8.19 | 26.43 | 8.21 | 43 | 15000 | 6.77 |
| C=CC(=O)Nc1cc(Nc2nccc(C(=O)c3ccc(Br)cc3)n2)c(OC)cc1N(C)CCN(C)C [EGFR_3365_13, N-(5-((4-(4-bromobenzoyl)pyrimidin-2-yl)amino)-2-((2-(dimethylamino)ethyl) (methyl)amino)-4-methoxyphenyl)acrylamide] | 5.35 | 7.51 | 7.51 | 145.63 | 100.0 | 82.4 | 98.9 | 7.74 | 6.22 | 7.99 | 460 | 14100 | 6.95 |
| C=CC(=O)Nc1cc(Nc2nccc(C(=O)c3cccc(OC)c3)n2)c(OC)cc1N(C)CCN(C)C [EGFR_3365_32, N-(2-((2-(dimethylamino)ethyl)(methyl)amino)-4-methoxy-5-((4-(3-methoxybenzoyl)pyrimidin-2-yl)amino)phenyl)acrylamide] | 4.45 | 7.03 | 7.03 | 376.12 | 99.7 | 67.5 | 98.0 | 8.28 | 38.41 | 7.95 | 265 | 24800 | 6.69 |
| C=CC(=O)Nc1cc(Nc2nccc(C(=O)c3ccccc3OC)n2)c(OC)cc1N(C)CCN(C)C [EGFR_3365_33, N-(2-((2-(dimethylamino)ethyl)(methyl)amino)-4-methoxy-5-((4-(2-methoxybenzoyl)pyrimidin-2-yl)amino)phenyl)acrylamide] | < 5.00 | 8.25 | 8.25 | >1786** | 96.8 | 60.5 | 99.5 | 8.17 | 11.16 | 8.23 | 10285 | 57600 | 7.12 |
| C=CC(=O)Nc1cc(Nc2nccc(C(=O)c3cccc([N+](=O)[O-])c3)n2)c(OC)cc1N(C)CCN(C)C [EGFR_3365_34] | 4.79 | 6.78 | 6.78 | 98.26 | 100.0 | 82.7 | 99.0 | 8.16 | 74.07 | 6.95 | 62 | 10300 | 6.29 |
